Literature values in patent US20230089090A1, “Composition for Treating Viral Infections” (priority 2020, published 2023).

Assays:
[1] = both flavonols administered simultaneously
[2] = significant amount excreted over a 24-h period
[3] = system: androgen receptor (AR)-positive C4-2 cells; conditions: single compounds, read-out: half minimal inhibitory concentration (IC50)
[4] = system: HIV-1 infected lymphocytes; conditions: similar to DRB and cell control
[5] = in vivo, 10 mg/kg
human furin = human furin (Homo sapiens, UniProt P09958)
human furin, sequence (P09958 108-794): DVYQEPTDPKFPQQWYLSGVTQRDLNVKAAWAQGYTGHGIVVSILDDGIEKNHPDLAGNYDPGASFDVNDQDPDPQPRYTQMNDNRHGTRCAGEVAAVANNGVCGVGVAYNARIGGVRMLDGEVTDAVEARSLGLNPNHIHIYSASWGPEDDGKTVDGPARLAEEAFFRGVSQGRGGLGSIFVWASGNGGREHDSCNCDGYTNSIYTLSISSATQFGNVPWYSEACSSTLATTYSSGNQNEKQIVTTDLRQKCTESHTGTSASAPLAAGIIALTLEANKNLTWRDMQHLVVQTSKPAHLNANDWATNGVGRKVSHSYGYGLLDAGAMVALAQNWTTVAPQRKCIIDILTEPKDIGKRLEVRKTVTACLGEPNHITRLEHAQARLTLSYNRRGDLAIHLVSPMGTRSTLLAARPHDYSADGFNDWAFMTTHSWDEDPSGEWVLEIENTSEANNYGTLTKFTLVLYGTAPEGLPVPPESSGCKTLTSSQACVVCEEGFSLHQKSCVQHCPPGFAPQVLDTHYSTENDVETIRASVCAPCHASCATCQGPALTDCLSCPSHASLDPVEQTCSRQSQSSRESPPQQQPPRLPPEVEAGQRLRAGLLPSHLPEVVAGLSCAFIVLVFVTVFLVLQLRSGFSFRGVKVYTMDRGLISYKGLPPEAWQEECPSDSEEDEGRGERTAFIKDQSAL

## O=c1c(O)c(-c2ccc(O)cc2)oc2cc(O)cc(O)c12 [kaempferol, 3,4′,5,7-tetrahydroxyflavone]
[1]
  effect on efflux of quercetin: blocked the efflux of quercetin

## O=c1c(O)c(-c2ccc(O)c(O)c2)oc2cc(O)cc(O)c12 [quercetin, 2-(3,4-dihydroxyphenyl)-3,5,7-trihydroxy-4H-chromen-4-one]
[2]
  clearance and half-life in the blood: rapid clearance and a short half-life

## O=c1cc(-c2ccc(O)c(O)c2)oc2cc(O)cc(O)c12 [luteolin, 2-(3,4-dihydroxyphenyl)-5,7-dihydroxy-4-chromenone]
[3]
  IC50: 114 µM
[4]
  cell aggregation/syncytia: inhibition in cell aggregation/syncytia
Dengue virus; through inhibition of the proprotein convertase furin
  dengue virus replication: restricts dengue virus replication
Dengue virus; virus particles from luteolin-treated cells
  prM cleavage in virus particles: not cleaved efficiently
[5]
  adverse effects: Major adverse effects had not been observed
Human furin
  manner of inhibition of the enzyme activity: uncompetitive
Human furin; uncompetitive inhibition
  Ki: 58.6 µM
